Reference: patent US20200222474A1, “COMPOSITIONS AND METHODS FOR INCREASING PHYTOCHEMICAL BIOAVAILABLITY AND BIOACTIVITY” (North Carolina State University, priority 2017, published 2020)

System: L. acidophilus NCFM
Experiment: RNA-seq transcriptional analysis of L. acidophilus NCFM growing on plant glycosides
Type: cell-based, Lactobacillus acidophilus
[1] = gene LBA0282 (Hypothetical protein)
[2] = gene LBA0327 (Replication protein)
[3] = gene LBA0328 (Hypothetical protein)
[4] = gene LBA0330 (Hypothetical protein)
[5] = gene LBA0457 (Hypothetical protein)
[6] = gene LBA0485 (Hypothetical protein)
[7] = gene LBA0486 (Hypothetical protein)
[8] = gene LBA0487 (Hypothetical protein.)
[9] = gene LBA0492 (Hypothetical protein)
[10] = gene LBA0541 (Cadmium-transporting ATPase)
[11] = gene LBA0542 (Putative heavy-metal-transporting alpase)
[12] = gene LBA0543 (Hypothetical protein)
[13] = gene LBA0544 (Transcriptional regulator)
[14] = gene LBA0555 (Myosin-crossreactive antigen)
[15] = gene LBA0564 (HAD family hydrolase)
[16] = gene LBA0574 (ABC multi drug exporter)
[17] = gene LBA0575 (ABC multi drug exporter)
[18] = gene LBA0604 (Immunity protein)
[19] = gene LBA0605 (Putative hydrolase)
[20] = gene LBA0608 (Hypothetical protein)
[21] = gene LBA0631 (Hypothetical protein)
[22] = gene LBA0649 (Myosin-crossreactive antigen)
[23] = gene LBA0728 (Hypothetical protein LBA0728)
[24] = gene LBA1025 (Aldo/keto reductase family oxidoreductase)
[25] = gene LBA1026 (Aldo/keto reduetase family oxidoreductase)
[26] = gene LBA1206 (Hypothetical protein)
[27] = gene LBA1401 (Peroxidase (Npx))
[28] = gene LBA1435 (Hypothetical protein)
[29] = gene LBA1455 (Putative surface layer protein)
[30] = gene LBA1469 (UDP-glucose 4-epimerase)
[31] = gene LBA1656 (Hypothetical protein)
[32] = gene LBA1675 (Hypothetical protein)
[33] = gene LBA1676 (ATP-dependent helicase)
[34] = gene LBA1683 (Putative magnesium-transporting atpase)
[35] = gene LBA1704 (N-Acetylmuramic acid-6-phosphate etherase)
[36] = gene LBA1740 (Hypothetical protein)
[37] = gene LBA1752 (Hypothetical protein)
[38] = gene LBA1769 (Hypothetical protein)
[39] = gene LBA1793 (Hypothetical protein)
[40] = gene LBA1869 (Beta-phosphoglueomutase)
[41] = gene LBA1895 (Hypothetical protein)
[42] = nTPM on plant glycoside relative to glucose, mid-exponential phase

SMILES: OCc1ccccc1O[C@@H]1O[C@H](CO)[C@@H](O)[C@H](O)[C@H]1O [Salicin]
- Log2 differential normalized TPM ratio compared to lactose [1]: 0
- Transcripts per million (rpm) [1]: 34.3 rpm
- Log2 differential normalized TPM ratio compared to glucose [2]: 0
- Log2 differential normalized TPM ratio compared to lactose [2]: −0.3
- Transcripts per million (rpm) [2]: 8.1 rpm
- Log2 differential normalized TPM ratio compared to glucose [3]: −0.1
- Log2 differential normalized TPM ratio compared to lactose [3]: 0
- Transcripts per million (rpm) [3]: 13.3 rpm
- Log2 differential normalized TPM ratio compared to glucose [4]: 0.4
- Log2 differential normalized TPM ratio compared to lactose [4]: 0
- Transcripts per million (rpm) [4]: 27.3 rpm
- Log2 differential normalized TPM ratio compared to glucose [5]: 1.8
- Log2 differential normalized TPM ratio compared to lactose [5]: 0.8
- Transcripts per million (rpm) [5]: 1746 rpm
- Log2 differential normalized TPM ratio compared to glucose [6]: 1.9
- Log2 differential normalized TPM ratio compared to lactose [6]: −0.5
- Transcripts per million (rpm) [6]: 770.3 rpm
- Log2 differential normalized TPM ratio compared to glucose [7]: 2.4
- Log2 differential normalized TPM ratio compared to lactose [7]: −0.4
- Transcripts per million (rpm) [7]: 1205 rpm
- Log2 differential normalized TPM ratio compared to glucose [8]: 1.5
- Log2 differential normalized TPM ratio compared to lactose [8]: 0.2
- Transcripts per million (rpm) [8]: 96.1 rpm
- Log2 differential normalized TPM ratio compared to glucose [9]: 2
- Log2 differential normalized TPM ratio compared to lactose [9]: −0.5
- Transcripts per million (rpm) [9]: 32.8 rpm
- Log2 differential normalized TPM ratio compared to glucose [10]: 2
- Log2 differential normalized TPM ratio compared to lactose [10]: −0.3
- Transcripts per million (rpm) [10]: 143.6 rpm
- Log2 differential normalized TPM ratio compared to glucose [11]: 1.8
- Log2 differential normalized TPM ratio compared to lactose [11]: −0.4
- Transcripts per million (rpm) [11]: 311.6 rpm
- Log2 differential normalized TPM ratio compared to glucose [12]: 2
- Log2 differential normalized TPM ratio compared to lactose [12]: −0.4
- Transcripts per million (rpm) [12]: 266.3 rpm
- Log2 differential normalized TPM ratio compared to glucose [13]: 1.7
- Log2 differential normalized TPM ratio compared to lactose [13]: −0.3
- Transcripts per million (rpm) [13]: 342.8 rpm
- Log2 differential normalized TPM ratio compared to glucose [14]: 1.4
- Log2 differential normalized TPM ratio compared to lactose [14]: −0.5
- Transcripts per million (rpm) [14]: 118.8 rpm
- Log2 differential normalized TPM ratio compared to glucose [15]: 0.4
- Log2 differential normalized TPM ratio compared to lactose [15]: −0.2
- Transcripts per million (rpm) [15]: 1.4 rpm
- Log2 differential normalized TPM ratio compared to glucose [16]: −0.7
- Log2 differential normalized TPM ratio compared to lactose [16]: −1
- Transcripts per million (rpm) [16]: 54.6 rpm
- Log2 differential normalized TPM ratio compared to glucose [17]: −0.5
- Log2 differential normalized TPM ratio compared to lactose [17]: −0.8
- Transcripts per million (rpm) [17]: 55.6 rpm
- Log2 differential normalized TPM ratio compared to glucose [18]: −0.1
- Log2 differential normalized TPM ratio compared to lactose [18]: −0.6
- Transcripts per million (rpm) [18]: 14.3 rpm
- Log2 differential normalized TPM ratio compared to glucose [19]: 1.2
- Log2 differential normalized TPM ratio compared to lactose [19]: 0.2
- Transcripts per million (rpm) [19]: 6.3 rpm
- Log2 differential normalized TPM ratio compared to glucose [20]: 1.4
- Log2 differential normalized TPM ratio compared to lactose [20]: 0.3
- Transcripts per million (rpm) [20]: 95.4 rpm
- Log2 differential normalized TPM ratio compared to glucose [21]: 2.9
- Log2 differential normalized TPM ratio compared to lactose [21]: −0.2
- Transcripts per million (rpm) [21]: 9342.6 rpm
- Log2 differential normalized TPM ratio compared to glucose [22]: 1.6
- Log2 differential normalized TPM ratio compared to lactose [22]: 0.8
- Transcripts per million (rpm) [22]: 116.3 rpm
- Log2 differential normalized TPM ratio compared to glucose [23]: 4.1
- Log2 differential normalized TPM ratio compared to lactose [23]: 2.3
- Transcripts per million (rpm) [23]: 43.8 rpm
- Log2 differential normalized TPM ratio compared to lactose (gene LBA0802 (Hypothetical protein)): −0.2
- Log2 differential normalized TPM ratio compared to glucose (gene LBA0861 (Polyferredoxin)): 0.1
- Log2 differential normalized TPM ratio compared to lactose (gene LBA0861 (Polyferredoxin)): −0.5
- Transcripts per million (rpm) (gene LBA0861 (Polyferredoxin)): 196.3 rpm
- Log2 differential normalized TPM ratio compared to glucose (gene LBA1023 (Oxidoreductase)): −0.4
- Log2 differential normalized TPM ratio compared to lactose (gene LBA1023 (Oxidoreductase)): −0.7
- Transcripts per million (rpm) (gene LBA1023 (Oxidoreductase)): 132.8 rpm
- Log2 differential normalized TPM ratio compared to glucose [24]: −0.4
- Log2 differential normalized TPM ratio compared to lactose [24]: −0.5
- Transcripts per million (rpm) [24]: 23.7 rpm
- Log2 differential normalized TPM ratio compared to glucose [25]: −0.3
- Log2 differential normalized TPM ratio compared to lactose [25]: −0.8
- Transcripts per million (rpm) [25]: 26.1 rpm
- Log2 differential normalized TPM ratio compared to glucose (gene LBA1027 (Oxidoreductase)): 2.2
- Log2 differential normalized TPM ratio compared to lactose (gene LBA1027 (Oxidoreductase)): 0.6
- Transcripts per million (rpm) (gene LBA1027 (Oxidoreductase)): 2726.8 rpm
- Log2 differential normalized TPM ratio compared to glucose [26]: 1.5
- Log2 differential normalized TPM ratio compared to lactose [26]: 0.3
- Transcripts per million (rpm) [26]: 391.2 rpm
- Log2 differential normalized TPM ratio compared to glucose [27]: 2.7
- Log2 differential normalized TPM ratio compared to lactose [27]: 0.6
- Transcripts per million (rpm) [27]: 466.6 rpm
- Log2 differential normalized TPM ratio compared to glucose [28]: 3.6
- Log2 differential normalized TPM ratio compared to lactose [28]: −0.2
- Transcripts per million (rpm) [28]: 52.5 rpm
- Log2 differential normalized TPM ratio compared to glucose [29]: 0.1
- Log2 differential normalized TPM ratio compared to lactose [29]: −1.6
- Transcripts per million (rpm) [29]: 18.3 rpm
- Log2 differential normalized TPM ratio compared to glucose [30]: 1.4
- Log2 differential normalized TPM ratio compared to lactose [30]: −3.6
- Transcripts per million (rpm) [30]: 235.5 rpm
- Log2 differential normalized TPM ratio compared to glucose [31]: 0.9
- Log2 differential normalized TPM ratio compared to lactose [31]: 0.3
- Transcripts per million (rpm) [31]: 38.2 rpm
- Log2 differential normalized TPM ratio compared to glucose [32]: 2
- Log2 differential normalized TPM ratio compared to lactose [32]: 0.5
- Transcripts per million (rpm) [32]: 1669.1 rpm
- Log2 differential normalized TPM ratio compared to glucose [33]: 1.7
- Log2 differential normalized TPM ratio compared to lactose [33]: 0.5
- Transcripts per million (rpm) [33]: 1070.6 rpm
- Log2 differential normalized TPM ratio compared to glucose [34]: 0.3
- Log2 differential normalized TPM ratio compared to lactose [34]: 0.5
- Transcripts per million (rpm) [34]: 20.2 rpm
- Log2 differential normalized TPM ratio compared to glucose [35]: 0.7
- Log2 differential normalized TPM ratio compared to lactose [35]: 0.1
- Transcripts per million (rpm) [35]: 11.6 rpm
- Log2 differential normalized TPM ratio compared to glucose [36]: 0.3
- Log2 differential normalized TPM ratio compared to lactose [36]: −0.5
- Transcripts per million (rpm) [36]: 23.1 rpm
- Log2 differential normalized TPM ratio compared to glucose [37]: 0.6
- Log2 differential normalized TPM ratio compared to lactose [37]: −0.3
- Transcripts per million (rpm) [37]: 13 rpm
- Log2 differential normalized TPM ratio compared to glucose [38]: 1.8
- Log2 differential normalized TPM ratio compared to lactose [38]: −0.1
- Transcripts per million (rpm) [38]: 5527.5 rpm
- Log2 differential normalized TPM ratio compared to glucose [39]: 1.2
- Log2 differential normalized TPM ratio compared to lactose [39]: −1.7
- Transcripts per million (rpm) [39]: 37.8 rpm
- Log2 differential normalized TPM ratio compared to glucose (gene LBA1796 (ABC exporter)): 1
- Log2 differential normalized TPM ratio compared to lactose (gene LBA1796 (ABC exporter)): −1.6
- Transcripts per million (rpm) (gene LBA1796 (ABC exporter)): 18.3 rpm
- Log2 differential normalized TPM ratio compared to glucose [40]: 2.4
- Log2 differential normalized TPM ratio compared to lactose [40]: −0.1
- Transcripts per million (rpm) [40]: 43.1 rpm
- Log2 differential normalized TPM ratio compared to glucose [41]: 0.7
- Log2 differential normalized TPM ratio compared to lactose [41]: 0.5
- Transcripts per million (rpm) [41]: 46.2 rpm
- Log2 Ratio vs Glc, LBA0225 Phospho-β-glucosidase (GH1) [42]: −0.1
- Log2 Ratio vs Glc, LBA0227 PTS EIIC [42]: 0.9
- Log2 Ratio vs Glc, LBA0228 Transcriptional regulator [42]: 0.1
- Log2 Ratio vs Glc, LBA0466 Phosphoenolpyruvate carboxykinase (ATP) [42]: 1.3
- Log2 Ratio vs Glc, LBA0491 PTS EIIC [42]: 1.5
- Log2 Ratio vs Glc, LBA0492 Hypothetical protein [42]: 2
- Log2 Ratio vs Glc, LBA0555 Myosin-cross-reactive antigen/Fatty acid hydratase [42]: 1.4
- Log2 Ratio vs Glc, LBA0606 PTS EIIBC [42]: 2.5
- Log2 Ratio vs Glc, LBA0631 Hypothetical protein [42]: 2.9
- Log2 Ratio vs Glc, LBA0724 Transcriptional regulator (antiterminator) [42]: 5.3
- Log2 Ratio vs Glc, LBA0725 PTS EIICBA [42]: 8.9
- Log2 Ratio vs Glc, LBA0726 Phospho-β-glucosidase (GH1) [42]: 6.2
- Log2 Ratio vs Glc, LBA0728 Hypothetical protein [42]: 4.1
- Log2 Ratio vs Glc, LBA0876 PTS EIIC [42]: 2.4
- Log2 Ratio vs Glc, LBA0877 PTS EIIA [42]: 1.3
- Log2 Ratio vs Glc, LBA1401 Peroxidase (Npx) [42]: 2.7
- Log2 Ratio vs Glc, LBA1411 Fumarate reductase flavoprotein subunit [42]: 1.4
- Log2 Ratio vs Glc, LBA1433 Dihydroxyacetone kinase [42]: 2.7
- Log2 Ratio vs Glc, LBA1434 Dihydroxyacetone kinase [42]: 3.3
- Log2 Ratio vs Glc, LBA1435 Hypothetical protein [42]: 3.6
- Log2 Ratio vs Glc, LBA1436 Glycerol uptake facilitator protein [42]: 3.8
- Log2 Ratio vs Glc, LBA1632 NAD-dependent aldehyde dehydrogenase [42]: 2
- Log2 Ratio vs Glc, LBA1684 PTS EIIA [42]: 2.6
- Log2 Ratio vs Glc, LBA1689 Maltose-6′-phosphate glucosidase (GH4) [42]: 3.7
- Log2 Ratio vs Glc, LBA1701 Melibiose operon regulatory protein [42]: 1
- Log2 Ratio vs Glc, LBA1709 Mucus binding protein precursor [42]: 0.5
- Log2 Ratio vs Glc, LBA1797 Hypothetical protein [42]: 1.3
- Log2 Ratio vs Glc, LBA1812 α-Glucosidase II (GH31) [42]: 2.2
- Log2 Ratio vs Glc, LBA1869 β-Phosphoglucomutase [42]: 2.4
- Log2 Ratio vs Glc, LBA1871 Neopullulanase (GH13) [42]: 0.9
- Log2 Ratio vs Glc, LBA1873 Acetate kinase [42]: 1.2
- Log2 Ratio vs Glc, LBA1974 Pyruvate oxidase [42]: 1.8
